As usually defined, the inhibition is the change of the read-out against control, counted positive when it falls.

Test [1] has as its target dopaminergic receptors D2 (Homo sapiens, UniProt P14416). Put plainly: Radioligand binding assay, dopaminergic D2 receptors. Particulars: binding assay, test compound 1×10^−6 M. In a few lines:
(§1)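 Scintillation read-out. Specific = total − nonspecific (excess cold ligand). Data as % of control specific binding / % inhibition; IC50 by Hill fit; Ki = IC50/(1+L/KD), KD from Scatchard plot.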

Test [2] concerns the target dopaminergic receptors D3 (Homo sapiens, UniProt P35462). Put plainly: Radioligand binding assay, dopaminergic D3 receptors. Particulars: test compound 1×10^−6 M. In a few lines:
as §1

Test [3] addresses T1, 5-HT1A receptor (rat hippocampus) (Rattus norvegicus, UniProt P19327).
T1 construct: hippocampus; from tissue; host or cells: rat hippocampus
T1 sequence (P19327 1-422): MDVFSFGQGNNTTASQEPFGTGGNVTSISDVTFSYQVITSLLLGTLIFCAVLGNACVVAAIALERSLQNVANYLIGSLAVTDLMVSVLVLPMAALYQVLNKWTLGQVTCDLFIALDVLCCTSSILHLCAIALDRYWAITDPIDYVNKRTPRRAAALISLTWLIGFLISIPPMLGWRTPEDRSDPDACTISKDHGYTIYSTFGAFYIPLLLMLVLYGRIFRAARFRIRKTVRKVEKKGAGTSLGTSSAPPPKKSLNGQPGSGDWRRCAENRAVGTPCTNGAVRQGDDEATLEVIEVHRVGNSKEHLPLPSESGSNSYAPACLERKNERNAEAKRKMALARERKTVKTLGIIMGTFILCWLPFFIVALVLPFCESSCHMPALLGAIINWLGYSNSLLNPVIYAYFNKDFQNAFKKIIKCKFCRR
The test is described as follows: Radioligand binding assay, serotoninergic 5-HT1A receptors. Particulars: binding assay result in %, Table 5a.

Another test addresses T2, 5-HT2A receptor (Homo sapiens, UniProt P28223).
T2 construct: purchased PerkinElmer
The test is described as follows: Radioligand binding assay, serotoninergic 5-HT2A receptors. Particulars: binding assay result in %, Table 5a. In a few lines:
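Competition curves from scintillation-counted specific binding (total minus binding with excess unlabelled ligand) were Hill-fitted to give IC50, converted to Ki via Cheng-Prusoff using Scatchard-derived Kd.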

A further test has as its target T3, 5-HT6 receptor (Homo sapiens, UniProt P50406).
T3 construct: purchased PerkinElmer
Put plainly: Radioligand binding assay, serotoninergic 5-HT6 receptors. Particulars: binding assay result in %, Table 5a. In a few lines:
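Values are Ki from Cheng–Prusoff, taking IC50 from Hill nonlinear regression of competition curves and KD from a Scatchard plot. Specific binding was total minus binding with excess unlabelled ligand. Radioligand displacement was detected by scintillation counting, and data were also reported as percent of control specific binding.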

The target in a further test is T4, 5-HT7 receptor (Homo sapiens, UniProt P34969).
T4 construct: purchased PerkinElmer
T4 sequence (P34969 whole entry): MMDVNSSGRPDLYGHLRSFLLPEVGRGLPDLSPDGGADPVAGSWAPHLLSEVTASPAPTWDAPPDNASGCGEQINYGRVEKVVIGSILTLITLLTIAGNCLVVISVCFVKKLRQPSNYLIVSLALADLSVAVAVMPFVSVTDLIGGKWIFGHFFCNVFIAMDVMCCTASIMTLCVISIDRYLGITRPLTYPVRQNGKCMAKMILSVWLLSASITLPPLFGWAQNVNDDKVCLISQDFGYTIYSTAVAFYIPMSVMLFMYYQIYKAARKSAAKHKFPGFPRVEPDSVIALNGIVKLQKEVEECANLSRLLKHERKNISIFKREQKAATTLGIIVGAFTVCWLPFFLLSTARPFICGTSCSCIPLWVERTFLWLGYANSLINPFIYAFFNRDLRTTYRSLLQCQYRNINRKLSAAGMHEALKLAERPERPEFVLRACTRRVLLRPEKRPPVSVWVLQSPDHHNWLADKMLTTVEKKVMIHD
Put plainly: Radioligand binding assay, serotoninergic 5-HT7 receptors. Particulars: binding assay result in %, Table 5a. Summed up:
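Ki values used the Cheng–Prusoff equation, with KD from Scatchard analysis, applied to IC50 from Hill fits of human 5-HT7 radioligand competition curves. Bound radioligand was counted by scintillation, and excess unlabelled ligand set the non-specific binding.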

The test system of test [4] is α1 adrenergic receptors (rat cerebral cortex). Put plainly: Radioligand binding assay, adrenergic α1 receptors. Particulars: test compound 1×10^−6 M. The text has this: The specific ligand binding to the receptors is defined as the difference between the total binding and the non-specific binding determined in the presence of the excess of unlabelled ligand.
The results are expressed as a percent of control specific binding ((measured specific binding/control specific binding)×100) and as a percent inhibition of control specific binding (100−((measured specific binding/control specific binding)×100)) obtained in the presence of the test compounds. The specific ligand binding to the receptors is defined as the difference between the total binding and the nonspecific binding determined in the presence of an excess of unlabelled ligand. Scintillation counting was the method of detection of ligand binding. The IC50 values (concentration causing a half-maximal inhibition of control specific binding) were determined by non-linear regression analysis of the competition curves generated with mean replicate values using Hill equation curve fitting (Y=D+[(A−D)/(1+(C/C50)nH)], where Y=specific binding, D=minimum specific binding, A=maximum specific binding, C=compound concentration, C50=IC50, and nH=slope factor). […] The inhibition constants (Ki) were calculated using the Cheng Prusoff equation (Ki=IC50/(1+(L/KD)), where L=concentration of radioligand in the assay, and KD=affinity of the radioligand for the receptor). A scatchard plot was used to determine the Kd.

The target of test [5] is T5, serotonin transporter (SERT) (Homo sapiens, UniProt P31645).
T5 construct: expressed in transfected cells; host or cells: CHO cells
T5 sequence (P31645 whole entry): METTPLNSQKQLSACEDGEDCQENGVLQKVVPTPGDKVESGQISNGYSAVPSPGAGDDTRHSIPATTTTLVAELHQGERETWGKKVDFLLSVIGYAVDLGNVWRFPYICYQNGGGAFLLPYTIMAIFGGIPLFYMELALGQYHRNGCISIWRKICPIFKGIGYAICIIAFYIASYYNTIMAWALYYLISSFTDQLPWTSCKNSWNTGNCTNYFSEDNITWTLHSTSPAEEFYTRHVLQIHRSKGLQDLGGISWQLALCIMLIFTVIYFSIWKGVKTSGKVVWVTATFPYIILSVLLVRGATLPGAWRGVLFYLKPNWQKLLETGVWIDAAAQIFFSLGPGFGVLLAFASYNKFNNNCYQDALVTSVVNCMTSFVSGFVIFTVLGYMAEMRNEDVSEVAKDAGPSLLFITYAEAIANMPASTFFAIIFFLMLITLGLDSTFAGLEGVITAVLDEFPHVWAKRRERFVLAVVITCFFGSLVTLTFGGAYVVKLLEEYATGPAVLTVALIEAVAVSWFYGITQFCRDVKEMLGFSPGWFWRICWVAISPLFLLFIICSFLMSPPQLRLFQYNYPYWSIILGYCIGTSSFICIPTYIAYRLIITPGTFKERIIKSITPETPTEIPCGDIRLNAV
Put plainly: Radioligand binding assay, serotonin transporter (SERT). Particulars: binding assay, test compound 1×10^−6 M. Summed up: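 Values are derived from competition curves fitted by the Hill equation to give IC50, then converted to Ki by Cheng-Prusoff with radioligand Kd from Scatchard analysis. Specific binding equals total minus non-specific (excess cold ligand), counted by scintillation, and is also expressed as percent inhibition of control.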

T3 sequence (P50406 whole entry): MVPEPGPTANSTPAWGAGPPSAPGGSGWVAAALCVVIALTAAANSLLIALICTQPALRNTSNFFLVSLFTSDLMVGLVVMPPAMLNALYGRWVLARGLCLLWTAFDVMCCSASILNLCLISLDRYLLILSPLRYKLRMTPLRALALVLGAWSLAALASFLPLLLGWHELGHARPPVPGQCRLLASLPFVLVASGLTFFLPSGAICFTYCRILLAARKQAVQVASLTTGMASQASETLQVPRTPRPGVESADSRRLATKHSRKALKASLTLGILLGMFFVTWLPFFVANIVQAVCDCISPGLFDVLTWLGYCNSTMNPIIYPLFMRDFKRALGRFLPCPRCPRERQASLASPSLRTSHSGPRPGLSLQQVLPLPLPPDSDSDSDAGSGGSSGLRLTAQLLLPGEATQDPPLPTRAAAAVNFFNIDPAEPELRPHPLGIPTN
T2 sequence (P28223 whole entry): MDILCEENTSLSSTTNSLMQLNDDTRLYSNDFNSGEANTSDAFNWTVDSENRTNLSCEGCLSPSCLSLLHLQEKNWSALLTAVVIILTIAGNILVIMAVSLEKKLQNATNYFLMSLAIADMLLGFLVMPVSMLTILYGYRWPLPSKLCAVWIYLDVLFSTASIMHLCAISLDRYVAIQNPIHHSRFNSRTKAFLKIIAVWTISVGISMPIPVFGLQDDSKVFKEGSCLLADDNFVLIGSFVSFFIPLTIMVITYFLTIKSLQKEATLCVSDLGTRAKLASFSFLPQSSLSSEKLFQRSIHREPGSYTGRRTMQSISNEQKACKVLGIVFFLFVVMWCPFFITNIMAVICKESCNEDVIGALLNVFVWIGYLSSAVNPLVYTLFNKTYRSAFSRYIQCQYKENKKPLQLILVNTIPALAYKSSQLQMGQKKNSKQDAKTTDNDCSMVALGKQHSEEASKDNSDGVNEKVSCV
Sequence of dopaminergic receptors D3 (P35462 whole entry): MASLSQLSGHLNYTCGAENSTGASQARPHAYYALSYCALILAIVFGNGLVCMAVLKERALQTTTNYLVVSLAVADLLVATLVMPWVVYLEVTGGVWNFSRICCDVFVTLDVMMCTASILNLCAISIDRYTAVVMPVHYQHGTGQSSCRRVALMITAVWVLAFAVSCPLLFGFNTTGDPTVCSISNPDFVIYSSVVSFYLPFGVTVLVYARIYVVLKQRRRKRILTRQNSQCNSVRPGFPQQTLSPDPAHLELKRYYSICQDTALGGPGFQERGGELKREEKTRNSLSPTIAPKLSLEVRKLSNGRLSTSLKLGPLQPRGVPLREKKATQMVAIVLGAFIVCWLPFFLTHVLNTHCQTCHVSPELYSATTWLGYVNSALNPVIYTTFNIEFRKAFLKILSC
Sequence of dopaminergic receptors D2 (P14416 whole entry): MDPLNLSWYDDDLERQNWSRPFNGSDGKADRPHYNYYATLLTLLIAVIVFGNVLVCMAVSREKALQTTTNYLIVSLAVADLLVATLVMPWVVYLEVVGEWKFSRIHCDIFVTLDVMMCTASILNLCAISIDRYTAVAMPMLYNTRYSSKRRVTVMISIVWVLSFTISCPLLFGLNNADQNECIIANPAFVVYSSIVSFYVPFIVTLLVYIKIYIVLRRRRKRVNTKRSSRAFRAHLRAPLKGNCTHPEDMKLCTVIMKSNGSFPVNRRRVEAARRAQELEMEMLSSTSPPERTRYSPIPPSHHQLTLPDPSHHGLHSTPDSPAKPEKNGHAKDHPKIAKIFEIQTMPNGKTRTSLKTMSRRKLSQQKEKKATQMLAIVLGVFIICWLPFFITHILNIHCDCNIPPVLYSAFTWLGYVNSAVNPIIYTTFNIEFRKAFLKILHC

Consider `O=S(=O)(NCC1CCN(CCOc2ccc3cc[nH]c3c2)CC1)c1cccc2ccccc12` [Compound 71, N-[[1-[2-(1H-Indol-6-yloxy)ethyl]-4-piperidine]methyl]naphthalene-1-sulphonamide], for which, in test [1], the “D2 [%]” value was determined as 27%. For the same compound, the “D3 [%]” value in test [2] is given as −1%. Moreover, the “5-HT1A [%]” value in test [3] is reported as 28%. In addition, at 5-HT2A receptor, the “5-HT2A [%]” value is listed as 26%. Further, the “5-HT6 [%]” value on 5-HT6 receptor stood at 80%. On 5-HT7 receptor, the “5-HT7 [%]” value worked out at 31%. Further, the “α1 [%]” value in test [4] is 36%. Further, the “SERT [%]” value in test [5] is 49%.

As to `O=S(=O)(NC1CCN(CCCc2c[nH]c3ccc(Cl)cc23)C1)c1ccccc1` (stereo not drawn) [Compound 81, N-[1-[3-(5-Chloro-1H-indol-3-yl)propyl]pyrrolidin-3-yl]benzene-sulphonamide], the inhibition at 1 µM in test [1] worked out at 60%; in test [2], 86%; in test [3] it was 109%; at 5-HT2A receptor it was 75%; on 5-HT6 receptor, 75%; at 5-HT7 receptor it was 84%. Moreover, the inhibition at 1 µM in test [5] was 78%. Further, the “α1 [%]” value in test [4] is on record as 36%.

For `O=S(=O)(NC1CCN(CCCc2c[nH]c3ccc(Cl)cc23)C1)c1ccc(F)cc1` (stereo not drawn) [Compound 83, N-[1-[3-(5-Chloro-1H-indol-3-yl)propyl]pyrrolidin-3-yl]-4-fluoro-benzenesulphonamide], the inhibition at 1 µM amounted to 44% in test [1]; 76% in test [2]; 104% in test [3]; 82% at 5-HT2A receptor; 84% at 5-HT6 receptor; 86% on 5-HT7 receptor. Also, the inhibition at 1 µM in test [5] was determined as 78%. Besides, the “α1 [%]” value in test [4] is on record as 23%.

Regarding `O=S(=O)(NC1CCN(CCCc2c[nH]c3ccc(Cl)cc23)C1)c1ccc(Cl)cc1` (stereo not drawn) [Compound 85, 4-Chloro-N-[1-[3-(5-chloro-1H-indol-3-yl)propyl]pyrrolidin-3-yl]-benzene-sulphonamide], the inhibition at 1 µM in test [1] worked out at 45%; in test [2], 75%; in test [3], 102%; at 5-HT2A receptor it was 64%; on 5-HT6 receptor, 82%; on 5-HT7 receptor, 89%. Further, the inhibition at 1 µM in test [5] was 70%. For the same compound, in test [4], the “α1 [%]” value turned out to be 9%.

`O=S(=O)(NC1CCN(CCCc2c[nH]c3ccc(Cl)cc23)C1)c1ccc2ccccc2c1` (stereo not drawn) [Compound 87, N-[1-[3-(5-Chloro-1H-indol-3-yl)propyl]pyrrolidin-3-yl]naphthalene-2-sulphonamide]: the inhibition at 1 µM in test [1] came to 63%; in test [2], 86%; in test [3] it was 105%; on 5-HT2A receptor, 78%; on 5-HT6 receptor, 91%; on 5-HT7 receptor, 71%. Besides, the inhibition at 1 µM in test [5] is 64%. In test [4], the “α1 [%]” value is listed as 18%.

As to `O=S(=O)(NC1CN(CCOc2cccc3c2OCCO3)C1)c1ccccc1` [Compound 88, N-[1-[2-(2,3-Dihydro-1,4-benzodioxan-8-yloxy)ethyl]azetidin-3-yl]-benzenesulphonamide], the “D2 [%]” value in test [1] was −5%. Besides, the “D3 [%]” value in test [2] is reported as −2%. In addition, the “5-HT1A [%]” value in test [3] amounted to 96%. Moreover, the “5-HT2A [%]” value at 5-HT2A receptor was 34%. In addition, the “5-HT6 [%]” value at 5-HT6 receptor worked out at 13%. Further, the “5-HT7 [%]” value at 5-HT7 receptor is given as 84%. Besides, the “α1 [%]” value in test [4] is reported as −23%. Besides, the “SERT [%]” value in test [5] is −13%.

For the compound `O=S(=O)(NC1CN(CCOc2cccc3c2OCCO3)C1)c1ccc(F)cc1` [Compound 90, N-[1-[2-(2,3-Dihydro-1,4-benzodioxan-8-yloxy)ethyl]azetidin-3-yl]-4-fluoro-benzenesulphonamide], in test [1], the “D2 [%]” value was determined as 5%. Also, the “D3 [%]” value in test [2] is −7%. The “5-HT1A [%]” value in test [3] is 82%. At 5-HT2A receptor, the “5-HT2A [%]” value was determined as 49%. The “5-HT6 [%]” value at 5-HT6 receptor is given as −16%. Further, on 5-HT7 receptor, the “5-HT7 [%]” value was found to be 92%. For the same compound, in test [4], the “α1 [%]” value is listed as −25%. Moreover, the “SERT [%]” value in test [5] is recorded as 18%.

For `O=S(=O)(NC1CN(CCOc2cccc3c2OCCO3)C1)c1cccc(Cl)c1` [Compound 91, 3-Chloro-N-[1-[2-(2,3-dihydro-1,4-benzodioxan-8-yloxy)ethyl]azetidin-3-yl]benzenesulphonamide], the “D2 [%]” value in test [1] is listed as 15%. Besides, the “D3 [%]” value in test [2] is on record as −8%. Moreover, the “5-HT1A [%]” value in test [3] is 88%. Moreover, the “5-HT2A [%]” value on 5-HT2A receptor amounted to 47%. Moreover, the “5-HT6 [%]” value on 5-HT6 receptor is listed as −20%. In addition, the “5-HT7 [%]” value on 5-HT7 receptor is 91%. For the same compound, the “α1 [%]” value in test [4] is −15%. The “SERT [%]” value in test [5] is on record as −4%.

With `O=S(=O)(NC1CN(CCOc2cccc3c2OCCO3)C1)c1ccc2ccccc2c1` [Compound 95, N-[1-[2-(2,3-Dihydro-1,4-benzodioxan-8-yloxy)ethyl]azetidin-3-yl]naphthalene-2-sulphonamide], the “D2 [%]” value in test [1] is on record as 5%. For the same compound, the “D3 [%]” value in test [2] is recorded as 1%. Further, in test [3], the “5-HT1A [%]” value was determined as 94%. The “5-HT2A [%]” value on 5-HT2A receptor is recorded as 0%. The “5-HT6 [%]” value on 5-HT6 receptor is reported as 9%. Besides, the “5-HT7 [%]” value on 5-HT7 receptor came out at 94%. Moreover, the “α1 [%]” value in test [4] is on record as −21%. Moreover, the “SERT [%]” value in test [5] is on record as −4%.

Take `O=S(=O)(NC1CCN(CCOc2cccc3c2OCCO3)C1)c1ccccc1` (stereo not drawn) [Compound 96, N-[1-[2-(2,3-Dihydro-1,4-benzodioxan-8-yloxy)ethyl]pyrrolidin-3-yl]-benzenesulphonamide]: the “D2 [%]” value in test [1] is given as 46%. In addition, the “D3 [%]” value in test [2] was determined as 56%. In test [3], the “5-HT1A [%]” value was 92%. The “5-HT2A [%]” value at 5-HT2A receptor is listed as 93%. In addition, the “5-HT6 [%]” value on 5-HT6 receptor is reported as 5%. At 5-HT7 receptor, the “5-HT7 [%]” value was 98%. Further, the “α1 [%]” value in test [4] was determined as 60%. Besides, the “SERT [%]” value in test [5] was determined as 11%.

For the compound `Cc1cccc(S(=O)(=O)NC2CCN(CCOc3cccc4c3OCCO4)C2)c1` (stereo not drawn) [Compound 97, N-[1-[2-(2,3-Dihydro-1,4-benzodioxan-8-yloxy)ethyl]pyrrolidin-3-yl]-3-methylbenzenesulphonamide], the “D2 [%]” value in test [1] was 29%. Also, in test [2], the “D3 [%]” value stood at 40%. In addition, the “5-HT1A [%]” value in test [3] turned out to be 84%. For the same compound, at 5-HT2A receptor, the “5-HT2A [%]” value was found to be 89%. The “5-HT6 [%]” value on 5-HT6 receptor amounted to 43%. On 5-HT7 receptor, the “5-HT7 [%]” value worked out at 105%. The “α1 [%]” value in test [4] turned out to be 64%. Further, the “SERT [%]” value in test [5] was −1%.

Take `O=S(=O)(NC1CCN(CCOc2cccc3c2OCCO3)C1)c1cccc2ccccc12` (stereo not drawn) [Compound 98, N-[1-[2-(2,3-Dihydro-1,4-benzodioxan-8-yloxy)ethyl]pyrrolidin-3-yl]-naphthalene-1-sulphonamide]: the “D2 [%]” value in test [1] amounted to 62%. Besides, in test [2], the “D3 [%]” value stood at 67%. Also, the “5-HT1A [%]” value in test [3] came out at 92%. In addition, on 5-HT2A receptor, the “5-HT2A [%]” value turned out to be 87%. In addition, the “5-HT6 [%]” value on 5-HT6 receptor was 32%. In addition, the “5-HT7 [%]” value on 5-HT7 receptor came to 100%. The “α1 [%]” value in test [4] is 78%. For the same compound, the “SERT [%]” value in test [5] is given as 16%.
